Experimental findings from ChEMBL document CHEMBL4673316, “Synthesis and evaluation of a UMI-77-based fluorescent probe for selective detecting Mcl-1 protein and imaging in living cancer cells” (Bioorg Med Chem, 2021) are described below.

The source made the active and inactive calls. The rule behind the calls is not given here.

The target of series [1] is T1, Induced myeloid leukemia cell differentiation protein Mcl-1 (Homo sapiens, UniProt Q07820). The experiment in a line: Binding affinity to Mcl1 in HUVEC cells at 5 uM incubated for 30 mins by fluorescence microscopy analysis. It is filed as cell-based.
Series [2] addresses T1, Induced myeloid leukemia cell differentiation protein Mcl-1. The experiment in a line: Binding affinity to Mcl1 in human PC-3 cells at 5 uM incubated for 30 mins in presence of UMI-77 by fluorescence microscopy analysis. It is filed as cell-based.
The nature of series [3]: Drug localization in mitochondria of human PC-3 cells at 5 uM incubated for 30 mins by MitoTracker Red CMXRos dye and Hoechst 33342 nuclear dye based fluorescence microscopic analysis. It is filed as ADME. The following applies: pc-3, 0.5 h.
In series [4] the target is T1, Induced myeloid leukemia cell differentiation protein Mcl-1. The experiment in a line: Inhibition of Mcl-1 (unknown origin) using 5-FAM-Bid-BH3 as substrate incubated for 30 mins followed by substrate addition and measured after 20 mins by fluorescence polarization assay. A general note: In fluorescence polarisation assays a small probe gives low polarisation when free and higher when bound to something large.

The species entered for series [5] is Homo sapiens. The experiment in a line: Selectivity index, ratio of Ki for Bcl-2 (unknown origin) to Ki for Mcl-1 (unknown origin). The following applies: dose 5.0 µM, time 20.0 min.
The target of series [6] is Apoptosis regulator Bcl-2 (Homo sapiens, UniProt P10415). The experiment in a line: Inhibition of Bcl2 (unknown origin) using 5-FAM-Bid-BH3 as substrate incubated for 30 mins followed by substrate addition and measured after 20 mins by fluorescence polarization assay.
Series [7] concerns the target T1, Induced myeloid leukemia cell differentiation protein Mcl-1. The experiment in a line: Binding affinity to Mcl1 (unknown origin) at 5 uM incubated for 20 mins in presence of 5 to 100 uM UMI-77 by fluorescence based assay.
For series [8] the target is unchanged. The experiment in a line: Binding affinity to Mcl1 in human PC-3 cells at 5 uM incubated for 30 mins by fluorescence microscopy analysis. It is filed as cell-based.
The species entered for series [9] is Homo sapiens. The experiment in a line: Selectivity index, ratio of binding for BSA (unknown origin) to binding for Mcl-1 (unknown origin).
A further series has as its system PC-3. The experiment in a line: Cytotoxicity against human PC-3 cells assessed as reduction in cell viability at 5 to 50 uM incubated for 1 hr by CCK8 assay. As to conditions: pc-3, 1 h, dose 5-50 µM. It is filed as cell-based.
The nature of series [10]: Effect on human PC-3 cells with knocked out Mcl1 gene at 5 uM incubated for 30 mins by fluorescence microscopic analysis. Type of series: ADME, cell-based. The following applies: pc-3, 0.5 h.
Series [11] concerns the target T1, Induced myeloid leukemia cell differentiation protein Mcl-1. The experiment in a line: Binding affinity to Mcl1 in human PC-3 cells at 5 uM incubated for 30 mins in presence of UMI-77 by flow cytometry analysis. It is filed as cell-based.
For the next series, the system named is HUVEC. The experiment in a line: Cytotoxicity against HUVEC cells assessed as reduction in cell viability at 5 to 50 uM incubated for 1 hr by CCK8 assay. The following applies: human, dose 5-50 µM. Type of series: cell-based.
Series [12] addresses T1, Induced myeloid leukemia cell differentiation protein Mcl-1. The experiment in a line: Binding affinity to Mcl1 (unknown origin) at 5 uM incubated for 20 mins by fluorescence based assay.
For series [13] the target is unchanged. The experiment in a line: Binding affinity to Mcl1 (unknown origin) at 5 uM incubated for 20 mins by fluorescence based assay (reference value: 0.66 %).
Series [14] has the same target. The experiment in a line: Binding affinity to Mcl1 in human PC-3 cells at 5 uM incubated for 30 mins by flow cytometry analysis. Type of series: cell-based.
Series [15] shares this target. The experiment in a line: Binding affinity to Mcl1 (unknown origin) at 5 uM incubated for 20 mins by fluorescence based assay relative to control.

T1 sequence (Q07820 whole entry): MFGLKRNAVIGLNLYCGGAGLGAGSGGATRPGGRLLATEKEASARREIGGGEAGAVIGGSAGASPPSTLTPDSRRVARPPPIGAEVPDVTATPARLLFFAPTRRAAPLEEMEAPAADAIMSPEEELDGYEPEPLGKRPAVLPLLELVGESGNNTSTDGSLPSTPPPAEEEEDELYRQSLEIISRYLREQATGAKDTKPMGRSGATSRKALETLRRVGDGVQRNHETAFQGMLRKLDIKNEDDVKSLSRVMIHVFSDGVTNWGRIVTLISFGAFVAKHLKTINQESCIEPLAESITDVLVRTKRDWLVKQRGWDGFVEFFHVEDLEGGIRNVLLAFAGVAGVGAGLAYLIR
Sequence of Apoptosis regulator Bcl-2 (P10415 whole entry): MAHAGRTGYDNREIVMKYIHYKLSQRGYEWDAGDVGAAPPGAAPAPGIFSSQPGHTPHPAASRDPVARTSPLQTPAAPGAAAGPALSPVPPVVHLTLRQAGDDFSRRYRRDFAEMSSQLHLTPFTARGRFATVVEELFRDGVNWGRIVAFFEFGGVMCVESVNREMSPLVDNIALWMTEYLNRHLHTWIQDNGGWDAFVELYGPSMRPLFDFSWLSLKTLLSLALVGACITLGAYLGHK

With `CN(C)c1cccc2c(S(=O)(=O)Nc3cc(SCC(=O)O)c(O)c4ccccc34)cccc12`, the result in [1], in series [2], in series [7] and in series [11] was inactive. Moreover, the Drug uptake entry in [3] is “Active”. In addition, the Ki in [4] was 120 nM; in [6], 2200 nM. Further, the Ratio Ki in the series filed under Homo sapiens [5] was 5. Also, the outcome in series [8], in [12] and in [14] was Active. Also, the Ratio in the series filed under Homo sapiens [9] worked out at 2. Further, the Activity entry was “Non-Toxic” in the series on PC-3, “Non-Toxic” in [10], “Non-Toxic” in the series on HUVEC and 6.47% in [13]. The molecule also yielded a fold change (FC) in series [15] of 5.

Regarding `O=C(O)CSc1cc(NS(=O)(=O)c2ccc(Br)cc2)c2ccccc2c1O`, the Ki turned out to be 210 nM in series [4] and 11000 nM in series [6].

In general, Ki refers to a dissociation constant, usually derived from enzyme kinetics or from competition with a known ligand.
